Tests used:
[1] = Inhibition of recombinant his tagged IMP1 (unknown origin) expressed in Escherichia coli (DE3) cells using FC5 as substrate by microplate reader assay
[2] = Inhibition of recombinant VIM-1 (unknown origin) expressed in Escherichia coli (DE3) cells using FC5 as substrate by microplate reader assay
[3] = Inhibition of recombinant NDM1 (unknown origin) expressed in Escherichia coli (DE3) cells using FC5 as substrate by microplate reader assay
[4] = Inhibition of recombinant his tagged VIM-2 (unknown origin) expressed in Escherichia coli (DE3) cells using FC5 as substrate by microplate reader assay
[5] = Inhibition of recombinant VIM-5 (unknown origin) expressed in Escherichia coli (DE3) cells using FC5 as substrate by microplate reader assay

| Compound | IC50 [1] [µM] | IC50 [2] [µM] | IC50 [3] [µM] | IC50 [4] [µM] | IC50 [5] [µM] |
| --- | --- | --- | --- | --- | --- |
| NCCN[C@H]1CC[C@H](CC(=O)N[C@H]2Cc3cccc(C(=O)O)c3OB2O)CC1 | 13.2 | 0.041 | 0.18 | 0.004 | – |
| O=C(O)c1cccc(-n2cc(-c3ccccc3)nn2)c1 | > 100 | > 100 | > 100 | > 100 | > 100 |
| NCC(=O)Nc1cccc(-c2cn(-c3cccc(CP(=O)(O)O)c3)nn2)c1 | 24.1 | 1.82 | 19.3 | 0.29 | 0.086 |
| Cc1ccc(-c2cn(-c3cccc(CP(=O)(O)O)c3)nn2)cc1 | 4.4 | 5.48 | 24.6 | 0.77 | 0.045 |
| Nc1c(C(=O)O)cccc1-n1cc(-c2ccccc2)nn1 | > 100 | > 100 | > 100 | > 100 | > 100 |
| O=C(NCc1cccc(-c2cn(-c3cccc(CP(=O)(O)O)c3)nn2)c1)C(F)(F)F | 6.54 | 12.3 | 58.4 | 1.98 | 0.11 |
| NCc1cn(-c2ccccc2CP(=O)(O)O)nn1 | > 100 | > 100 | > 100 | > 100 | > 100 |
| O=C(O)c1ccccc1-c1cn(-c2cccc(C(=O)O)c2C(=O)O)nn1 | 13.9 | 19.5 | > 100 | > 100 | > 100 |
| Nc1ccc(-c2cn(-c3cccc(CP(=O)(O)O)c3)nn2)cc1 | 3.24 | 5.84 | 15.1 | 0.17 | 0.28 |
| OB(O)c1cccc(-c2cn(Cc3ccccc3)nn2)c1 | > 100 | > 100 | 36.3 | 64.2 | 14.6 |
| Nc1ccccc1-c1cn(-c2cccc(C(=O)O)c2C(=O)O)nn1 | 6.43 | > 100 | > 100 | 37.6 | 61.7 |
| Nc1cccc(-c2cn(-c3cccc(C(=O)O)c3C(=O)O)nn2)c1 | 1.17 | 14.5 | > 100 | 11.7 | > 100 |
| CCCCc1cn(-c2cccc(C(=O)O)c2C(=O)O)nn1 | 8.94 | > 100 | > 100 | 77.2 | > 100 |
| O=P(O)(O)Cc1ccccc1-n1cc(-c2cccc(Cl)c2)nn1 | 80.4 | 6.29 | > 100 | 0.88 | 1.49 |
| OB(O)c1cccc(-c2cn(-c3ccccc3)nn2)c1 | > 100 | > 100 | > 100 | > 100 | > 100 |
| O=P(O)(O)Cc1cccc(-n2cc(-c3ccc(F)cc3)nn2)c1 | 2.17 | 9.64 | 24.3 | 0.29 | 0.063 |
| NCCc1ccc(-c2cn(-c3cccc(C(=O)O)c3C(=O)O)nn2)cc1 | 1.8 | > 100 | > 100 | 67.5 | > 100 |
| O=C(O)c1cccc(-n2cc(-c3ccccc3)nn2)c1[N+](=O)[O-] | > 100 | > 100 | > 100 | > 100 | > 100 |
| COc1ccc(-c2cn(-c3cccc(CP(=O)(O)O)c3)nn2)cc1 | 6.41 | 4.26 | 7.63 | 0.17 | 0.043 |
| O=P(O)(O)Cc1ccc(-n2cc(-c3ccccc3)nn2)cc1 | > 100 | 16 | > 100 | 1.63 | 1.5 |
| O=P(O)(O)Cc1ccccc1-n1cc(-c2ccccc2)nn1 | > 100 | 10 | > 100 | 1.48 | 1.63 |
| CC(C)(C)OC(=O)NCCn1cc(-c2cccc(B(O)O)c2)nn1 | > 100 | > 100 | > 100 | 52.4 | > 100 |
| COc1cccc(-c2cn(-c3cccc(CP(=O)(O)O)c3)nn2)c1 | 12.2 | 8.74 | 60 | 0.83 | 0.093 |
| O=C(O)c1cccc(-n2cc(-c3ccccc3)nn2)c1C(=O)O | 8.23 | > 100 | > 100 | 13.3 | > 100 |
| Nc1ccc(-c2cn(-c3cccc(C(=O)O)c3C(=O)O)nn2)cc1 | 5.07 | > 100 | > 100 | 10.3 | > 100 |
| O=C(CCn1cc(-c2cccc(B(O)O)c2)nn1)Nc1ccccc1 | > 100 | > 100 | > 100 | 34.3 | 6.36 |
| NCc1cn(-c2cccc(C(=O)O)c2C(=O)O)nn1 | 81.5 | > 100 | > 100 | > 100 | > 100 |

| Compound | IC50 [1] [µM] | IC50 [2] [µM] | IC50 [3] [µM] | IC50 [4] [µM] | IC50 [5] [µM] |
| --- | --- | --- | --- | --- | --- |
| OB(O)c1cccc(-c2cn(-c3cccc(Cl)c3)nn2)c1 | > 100 | > 100 | 29.1 | 24.2 | 14.7 |
| O=P(O)(O)Cc1cccc(-n2cc(-c3ccccc3)nn2)c1 | 5.98 | 3.65 | 27.8 | 0.65 | 0.05 |
| O=C(CCn1cc(-c2cccc(B(O)O)c2)nn1)Nc1cccc(Cl)c1 | > 100 | > 100 | 68.2 | 30.5 | 48.7 |
| NCc1cccc(-c2cn(-c3ccccc3CP(=O)(O)O)nn2)c1 | > 100 | 21.7 | > 100 | 4.92 | 1.4 |
| CCCCc1cn(-c2ccccc2CP(=O)(O)O)nn1 | > 100 | 13.8 | > 100 | 5.34 | 32.2 |
| Nc1cccc(-c2cn(-c3ccccc3CP(=O)(O)O)nn2)c1 | > 100 | 27.2 | 94.9 | 1.11 | 0.38 |
| O=C(O)c1cccc(-n2cc(CNc3ccccc3)nn2)c1C(=O)O | 3.53 | 37.8 | > 100 | 53.2 | 72 |
| O=C(O)c1cccc(-n2cc(-c3ccccc3)nn2)c1O | > 100 | 61.9 | > 100 | > 100 | 59.9 |
| Nc1cccc(-n2cc(-c3cccc(B(O)O)c3)nn2)c1 | > 100 | > 100 | 50.4 | 18.4 | > 100 |
| O=P(O)(O)Cc1cccc(-n2cc(-c3ccc(Cl)cc3)nn2)c1 | 8.34 | 7.12 | 40.2 | 0.44 | 0.18 |
| O=C(O)c1cccc(-n2cc(CCO)nn2)c1C(=O)O | 40.7 | > 100 | > 100 | > 100 | > 100 |
| O=C(O)c1ccc(-n2cc(-c3ccccc3)nn2)cc1C(=O)O | 46.2 | > 100 | > 100 | 94.6 | 60.4 |
| O=C(O)c1cccc(-n2cc(Cc3ccccc3)nn2)c1C(=O)O | 9.02 | 71 | > 100 | > 100 | 87.1 |
| O=P(O)(O)Cc1cccc(-n2cc(-c3cccc(Br)c3)nn2)c1 | 11.3 | 4.97 | 24.2 | 0.66 | 0.016 |
| OCCn1cc(-c2cccc(B(O)O)c2)nn1 | > 100 | > 100 | > 100 | > 100 | > 100 |
| NCc1cccc(-c2cn(-c3cccc(C(=O)O)c3C(=O)O)nn2)c1 | 19.7 | > 100 | > 100 | > 100 | > 100 |
| Cc1cccc(-c2cn(-c3ccccc3CP(=O)(O)O)nn2)c1 | > 100 | 6.57 | > 100 | 3.37 | 1.89 |
| Cc1cccc(-c2cn(-c3cccc(C(=O)O)c3C(=O)O)nn2)c1 | 1.83 | > 100 | > 100 | 19.8 | 28.8 |
| NCc1cccc(-c2cn(-c3cccc(CP(=O)(O)O)c3)nn2)c1 | 37.1 | 7.75 | 42.5 | 2.56 | 0.28 |
| O=C(O)c1cccc(-n2cc(-c3cccc(Cl)c3)nn2)c1C(=O)O | 2.84 | 15 | > 100 | 20.5 | 32.2 |
| O=C(NCc1cn(-c2cccc(CP(=O)(O)O)c2)nn1)C(F)(F)F | 54.6 | 33.7 | 73.7 | 2.22 | 0.028 |
| O=P(O)(O)Cc1cccc(-n2cc(-c3ccccc3F)nn2)c1 | 8.49 | 9.79 | 25.9 | 0.65 | 0.1 |
| O=P(O)(O)Cc1cccc(-n2cc(-c3cccc(Cl)c3)nn2)c1 | 7.17 | 6.85 | > 100 | 0.24 | 0.031 |
| O=P(O)(O)Cc1ccccc1-n1cc(CNc2ccccc2)nn1 | > 100 | 46 | 82.8 | 4.16 | 14.9 |
| O=P(O)(O)Cc1cccc(-n2cc(-c3cccc(F)c3)nn2)c1 | 6.74 | 6.67 | 34.7 | 0.97 | 0.08 |
| O=C(O)c1cn(-c2cccc(C(=O)O)c2C(=O)O)nn1 | 29.2 | > 100 | > 100 | 55.3 | 93.6 |

— ChEMBL document CHEMBL5620345, “Metal binding pharmacophore click-derived discovery of new broad-spectrum metallo-β-lactamase inhibitors” (Eur J Med Chem, 2023)
